Like-named read-outs stand apart in the source and are kept apart here.
Experiment: Phase I study CXR1002-001: plasma pharmacokinetics (LC-MS/MS)
Type: in vivo, human
Conditions: human, plasma, plasma; for concentration at 336 hr: 336 hr (Day 15)
Excerpt: PK samples, PD (fasting) samples, blood glucose, and blood triglyceride samples, were taken over a 6-week period.
Dose limiting toxicity (DLT) will be based on the toxicity assessments over the first 3-week period of the repeat dosing schedule. PK samples (single blood sample) were taken on the following basis: • Every 6 weeks during the repeat dosing phase • If dosing is interrupted or stopped, samples will be taken at intervals according to patient convenience • PK sampling for safety evaluation may take place at any time, as clinically indicated
Plasma samples were collected after the single 50 mg dose at the following timepoints: Pre-dose, and then 0.25, 0.5, 0.75, 1, 1.5, 2, 3, 4, 6, 24, 48, and 72 hours after administration and then once weekly at weeks 2, 3, 4, 5, and 6 (days 8, 15, 22, 29, and 36). For patients treated with the weekly repeat dose, plasma samples were collected at the following timepoints: Pre-dose and then 2, 3, 4 and 24 hours after administration for a total of 6 weeks. Thereafter a single sample was collected every 6 weeks for monitoring of exposure during long term treatment. Plasma samples were processed at site and stored at −80° C. prior to batch shipment to the analytical laboratory.

## O=C(O)C(F)(F)C(F)(F)C(F)(F)C(F)(F)C(F)(F)C(F)(F)C(F)(F)F [CXR1002]
oral, 1200 mg, Patient 034, 1200 mg, person, 4 hr, read-out: Concentration
  concentration at 4 hr: 560 µM
oral, 1200 mg, Patient 034, 1200 mg, person, 24 hr (Day 2), read-out: Concentration
  concentration at 24 hr: 409 µM
oral, 1200 mg, Patient 034, 1200 mg, person, 168 hr (Day 8), read-out: Concentration
  concentration at 168 hr: 351 µM
oral, 1200 mg, Patient 034, 1200 mg, person, 170 hr, read-out: Concentration
  concentration at 170 hr: 893 µM
oral, 1200 mg, Patient 034, 1200 mg, person, 171 hr, read-out: Concentration
  concentration at 171 hr: 771 µM
oral, 1200 mg, Patient 034, 1200 mg, person, 172 hr, read-out: Concentration
  concentration at 172 hr: 730 µM
oral, 1200 mg, Patient 034, 1200 mg, person, 192 hr (Day 9), read-out: Concentration
  concentration at 192 hr: 722 µM
oral, 1200 mg, Patient 034, 1200 mg, person, read-out: Concentration
  concentration at 336 hr: 644 µM
oral, 1200 mg, Patient 034, 1200 mg, person, 338 hr, read-out: Concentration
  concentration at 338 hr: 1030 µM
oral, 1200 mg, Patient 034, 1200 mg, person, 339 hr, read-out: Concentration
  concentration at 339 hr: 1120 µM
oral, 1200 mg, Patient 034, 1200 mg, person, 340 hr, read-out: Concentration
  concentration at 340 hr: 955 µM
oral, 1200 mg, Patient 034, 1200 mg, person, 360 hr (Day 16), read-out: Concentration
  concentration at 360 hr: 1020 µM
oral, 1200 mg, Patient 034, 1200 mg, person, 504 hr (Day 22), read-out: Concentration
  concentration at 504 hr: 924 µM
oral, 1200 mg, Patient 034, 1200 mg, person, 506 hr, read-out: Concentration
  concentration at 506 hr: 1350 µM
oral, 1200 mg, Patient 034, 1200 mg, person, 507 hr, read-out: Concentration
  concentration at 507 hr: 1220 µM
oral, 1200 mg, Patient 034, 1200 mg, person, 508 hr, read-out: Concentration
  concentration at 508 hr: 1440 µM
oral, 1200 mg, Patient 034, 1200 mg, person, 528 hr (Day 23), read-out: Concentration
  concentration at 528 hr: 1360 µM
oral, 1200 mg, Patient 034, 1200 mg, person, 672 hr (Day 29), read-out: Concentration
  concentration at 672 hr: 1080 µM
oral, 1200 mg, Patient 034, 1200 mg, person, 674 hr, read-out: Concentration
  concentration at 674 hr: 1310 µM
oral, 1200 mg, Patient 034, 1200 mg, person, 675 hr, read-out: Concentration
  concentration at 675 hr: 1450 µM
oral, 1200 mg, Patient 034, 1200 mg, person, 676 hr, read-out: Concentration
  concentration at 676 hr: 1380 µM
oral, 1200 mg, Patient 034, 1200 mg, person, 696 hr (Day 30), read-out: Concentration
  concentration at 696 hr: 1310 µM
oral, 1200 mg, Patient 035, 1200 mg, person, 2 hr, read-out: Concentration
  concentration at 2 hr: 298 µM
oral, 1200 mg, Patient 035, 1200 mg, person, 3 hr, read-out: Concentration
  concentration at 3 hr: 196 µM
oral, 1200 mg, Patient 035, 1200 mg, person, 4 hr, read-out: Concentration
  concentration at 4 hr: 317 µM
oral, 1200 mg, Patient 035, 1200 mg, person, 24 hr (Day 2), read-out: Concentration
  concentration at 24 hr: 261 µM
oral, 1200 mg, Patient 035, 1200 mg, person, 168 hr (Day 8), read-out: Concentration
  concentration at 168 h: 254 µM
oral, 1200 mg, Patient 035, 1200 mg, person, 170 hr, read-out: Concentration
  concentration at 170 h: 460 µM
oral, 1200 mg, Patient 035, 1200 mg, person, 171 hr, read-out: Concentration
  concentration at 171 h: 479 µM
oral, 1200 mg, Patient 035, 1200 mg, person, 172 hr, read-out: Concentration
  concentration at 172 h: 592 µM
oral, 1200 mg, Patient 035, 1200 mg, person, 192 hr (Day 9), read-out: Concentration
  concentration at 192 h: 543 µM
oral, 1200 mg, Patient 035, 1200 mg, person, read-out: Concentration
  concentration at 336 hr: 476 µM
oral, 1200 mg, Patient 035, 1200 mg, person, 338 hr, read-out: Concentration
  concentration at 338 hr: 570 µM
oral, 1200 mg, Patient 035, 1200 mg, person, 339 hr, read-out: Concentration
  concentration at 339 hr: 621 µM
oral, 1200 mg, Patient 035, 1200 mg, person, 340 hr, read-out: Concentration
  concentration at 340 hr: 649 µM
oral, 1200 mg, Patient 035, 1200 mg, person, 360 hr (Day 16), read-out: Concentration
  concentration at 360 h: 704 µM
oral, 1200 mg, Patient 035, 1200 mg, person, 504 hr (Day 22), read-out: Concentration
  concentration at 504 h: 600 µM
oral, 1200 mg, Patient 035, 1200 mg, person, 506 hr, read-out: Concentration
  concentration at 506 h: 774 µM
oral, 1200 mg, Patient 035, 1200 mg, person, 507 hr, read-out: Concentration
  concentration at 507 h: 925 µM
oral, 1200 mg, Patient 035, 1200 mg, person, 508 hr, read-out: Concentration
  concentration at 508 h: 1020 µM
po, 1000 mg, Patient 041, 1000 mg weekly oral dose, Time 2 hr, read-out: Concentration (plasma level)
  concentration at 2 hr: 223 µM
po, 1000 mg, Patient 041, 1000 mg weekly oral dose, Time 3 hr, read-out: Concentration (plasma level)
  concentration at 3 hr: 233 µM
po, 1000 mg, Patient 041, 1000 mg weekly oral dose, Time 4 hr, read-out: Concentration (plasma level)
  concentration at 4 hr: 207 µM
po, 1000 mg, Patient 041, 1000 mg weekly oral dose, Time 24 hr (Day 2), read-out: Concentration (plasma level)
  concentration at 24 hr: 175 µM
po, 1000 mg, Patient 041, 1000 mg weekly oral dose, Time 168 hr (Day 8), read-out: Concentration (plasma level)
  concentration at 168 hr: 171 µM
po, 1000 mg, Patient 041, 1000 mg weekly oral dose, Time 170 hr, read-out: Concentration (plasma level)
  concentration at 170 hr: 342 µM
po, 1000 mg, Patient 041, 1000 mg weekly oral dose, Time 171 hr, read-out: Concentration (plasma level)
  concentration at 171 hr: 413 µM
po, 1000 mg, Patient 041, 1000 mg weekly oral dose, Time 172 hr, read-out: Concentration (plasma level)
  concentration at 172 hr: 357 µM
po, 1000 mg, Patient 041, 1000 mg weekly oral dose, Time 192 hr (Day 9), read-out: Concentration (plasma level)
  concentration at 192 hr: 396 µM
po, 1000 mg, Patient 041, 1000 mg weekly oral dose, Time 336 hr (Day 15), read-out: Concentration (plasma level)
  concentration at 336 h: 294 µM
po, 1000 mg, Patient 041, 1000 mg weekly oral dose, Time 338 hr, read-out: Concentration (plasma level)
  concentration at 338 hr: 411 µM
po, 1000 mg, Patient 041, 1000 mg weekly oral dose, Time 339 hr, read-out: Concentration (plasma level)
  concentration at 339 hr: 485 µM
po, 1000 mg, Patient 041, 1000 mg weekly oral dose, Time 340 hr, read-out: Concentration (plasma level)
  concentration at 340 hr: 478 µM
po, 1000 mg, Patient 041, 1000 mg weekly oral dose, Time 360 hr (Day 16), read-out: Concentration (plasma level)
  concentration at 360 hr: 508 µM
po, 1000 mg, Patient 041, 1000 mg weekly oral dose, Time 504 hr (Day 22), read-out: Concentration (plasma level)
  concentration at 504 hr: 558 µM
po, 1000 mg, Patient 041, 1000 mg weekly oral dose, Time 506 hr, read-out: Concentration (plasma level)
  concentration at 506 hr: 674 µM
po, 1000 mg, Patient 041, 1000 mg weekly oral dose, Time 507 hr, read-out: Concentration (plasma level)
  concentration at 507 hr: 748 µM
po, 1000 mg, Patient 041, 1000 mg weekly oral dose, Time 508 hr, read-out: Concentration (plasma level)
  concentration at 508 hr: 676 µM

From patent US20130029928A1 (priority 2010, published 2013)
